Laboratory results taken from ChEMBL document CHEMBL4376816, “Discovery of the Oral Leukotriene C4 Synthase Inhibitor (1S,2S)-2-({5-[(5-Chloro-2,4-difluorophenyl)(2-fluoro-2-methylpropyl)amino]-3-methoxypyrazin-2-yl}carbonyl)cyclopropanecarboxylic Acid (AZD9898) as a New Treatment for Asthma” (J Med Chem, 2019).

Tests used:
Cytochrome P450 2C9 = Cytochrome P450 2C9 (Homo sapiens, UniProt P11712); test: Inhibition of recombinant human CYP2C9 expressed in Escherichia coli using coumarin based substrate by fluorescence assay; assay type: ADME
Sequence of Cytochrome P450 2C9 (P11712 whole entry): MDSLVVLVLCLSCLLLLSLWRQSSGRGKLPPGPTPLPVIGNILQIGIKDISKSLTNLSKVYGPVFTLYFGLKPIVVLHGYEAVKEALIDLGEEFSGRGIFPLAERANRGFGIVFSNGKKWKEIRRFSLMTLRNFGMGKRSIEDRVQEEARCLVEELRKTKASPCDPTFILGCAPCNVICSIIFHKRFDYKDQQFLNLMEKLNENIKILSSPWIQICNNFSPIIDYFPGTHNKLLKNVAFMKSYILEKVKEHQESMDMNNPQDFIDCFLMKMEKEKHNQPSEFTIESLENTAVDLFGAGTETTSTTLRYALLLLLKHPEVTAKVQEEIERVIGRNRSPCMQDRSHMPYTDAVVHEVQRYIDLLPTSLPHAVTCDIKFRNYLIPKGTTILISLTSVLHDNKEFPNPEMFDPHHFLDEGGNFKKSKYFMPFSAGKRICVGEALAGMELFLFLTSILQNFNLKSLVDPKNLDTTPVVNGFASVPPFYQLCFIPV

Cytochrome P450 2C19 = Cytochrome P450 2C19 (Homo sapiens, UniProt P33261); test: Inhibition of recombinant human CYP2C19 using coumarin based substrate by fluorescence assay; assay type: ADME
Sequence of Cytochrome P450 2C19 (P33261 whole entry): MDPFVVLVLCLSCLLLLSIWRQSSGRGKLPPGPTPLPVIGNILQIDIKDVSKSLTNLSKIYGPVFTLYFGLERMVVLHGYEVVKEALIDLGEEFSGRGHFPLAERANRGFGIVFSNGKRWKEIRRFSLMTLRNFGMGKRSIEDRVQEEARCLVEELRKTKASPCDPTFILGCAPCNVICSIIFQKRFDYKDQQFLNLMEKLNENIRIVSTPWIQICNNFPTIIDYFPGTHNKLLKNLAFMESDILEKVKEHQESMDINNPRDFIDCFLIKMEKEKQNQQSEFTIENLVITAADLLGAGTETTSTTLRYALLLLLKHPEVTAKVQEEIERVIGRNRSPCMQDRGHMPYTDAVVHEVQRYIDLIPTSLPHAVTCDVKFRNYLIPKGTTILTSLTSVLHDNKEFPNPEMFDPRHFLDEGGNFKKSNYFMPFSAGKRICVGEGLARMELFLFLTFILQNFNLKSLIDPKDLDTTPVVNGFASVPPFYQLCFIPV

[1] = Effective half life in Han Wistar rat at 0.5 mg/kg, iv or 1 mg/kg, po after 24 hrs; assay type: ADME, organism-based; settings: in vivo, read-out: t1/2eff (converted)

COc1nc(N(CC(C)(C)F)c2cc(Cl)c(F)cc2F)cnc1C(=O)[C@H]1C[C@@H]1C(=O)O [AZD-9898]
IC50 (Cytochrome P450 2C9): > 30 µM
IC50 (Cytochrome P450 2C19): > 30 µM
half-life [1]: 26 h
